Measured values as given in PubChem BioAssay AID1053170 (The Scripps Research Institute Molecular Screening Center, 2014).
The source made the active and inactive calls. No rule for the calls is given here.

target: E3 ubiquitin-protein ligase UHRF1 (Homo sapiens) (UniProt Q96T88); assay: UHRF1 methylated DNA binding inhibitors, late-stage follow-up, counter-screen for MBD2 inhibitor project, biochemical, TR-FRET, human UHRF1, dose response (AID 1053170)
Sequence (Q96T88 whole entry, looked up): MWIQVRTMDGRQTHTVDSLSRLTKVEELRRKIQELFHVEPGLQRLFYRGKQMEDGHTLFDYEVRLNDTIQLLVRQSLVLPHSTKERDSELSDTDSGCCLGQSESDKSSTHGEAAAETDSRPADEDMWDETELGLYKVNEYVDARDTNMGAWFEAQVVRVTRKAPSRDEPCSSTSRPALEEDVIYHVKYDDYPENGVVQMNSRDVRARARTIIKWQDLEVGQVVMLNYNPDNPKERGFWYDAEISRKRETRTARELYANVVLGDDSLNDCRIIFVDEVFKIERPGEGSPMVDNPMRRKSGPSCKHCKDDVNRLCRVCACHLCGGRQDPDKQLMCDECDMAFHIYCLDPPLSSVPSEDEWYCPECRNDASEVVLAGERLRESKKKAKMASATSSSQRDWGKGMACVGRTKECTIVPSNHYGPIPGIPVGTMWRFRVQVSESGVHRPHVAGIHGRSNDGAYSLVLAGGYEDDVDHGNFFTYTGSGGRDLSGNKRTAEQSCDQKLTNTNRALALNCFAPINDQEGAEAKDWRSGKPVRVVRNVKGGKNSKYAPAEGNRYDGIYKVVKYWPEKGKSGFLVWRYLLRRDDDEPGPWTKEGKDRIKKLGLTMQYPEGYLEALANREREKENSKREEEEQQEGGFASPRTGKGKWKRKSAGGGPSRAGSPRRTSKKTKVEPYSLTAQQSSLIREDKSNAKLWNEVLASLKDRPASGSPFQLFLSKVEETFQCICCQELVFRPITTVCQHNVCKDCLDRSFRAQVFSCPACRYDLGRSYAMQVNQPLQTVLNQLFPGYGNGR

Compound | IC50
CCOC(=O)c1ccc(NC(=O)COc2ccc(CNCCO)cc2OCC)cc1 | > 43.8 µM (inactive)
O=C(CSc1nc(-c2ccccc2)c(-c2ccccc2)o1)N1CCOCC1 | > 43.8 µM (inactive)
Cc1c2cnn(CC(=O)Nc3c(F)c(F)cc(F)c3F)c(=O)c2c(C)n1Cc1ccccc1F | inactive
Clc1ccc2c(c1)-c1ccccc1C1=NCCN12 | inactive
COc1ccc(NC(=O)COC(=O)CCc2ccc(S(=O)(=O)N3CCOCC3)cc2)cc1Cl | > 43.8 µM (inactive)
COc1ccc(NC(=O)CN2CCN(c3ccccc3C)CC2)cc1 | > 43.8 µM (inactive)
CCOc1ccc(S(=O)(=O)N2CCCC(C(=O)NCC3CCCO3)C2)cc1Cl (configuration not stated) | > 43.8 µM (inactive)
Cc1ccc(NCCN(C)C)c2c(=O)c3cc(O)ccc3sc12 | inactive
COc1ccc(NC(=O)Cn2cc(C(C)=O)c3ccccc32)cc1 | > 43.8 µM (inactive)
CN(C)CCNc1ccc(CO)c2sc3ccc(O)cc3c(=O)c12 | > 43.8 µM (inactive)
COc1ccc(C(=O)N2CCC(C(=O)Nc3ccc(C)cc3)CC2)cc1 | > 43.8 µM (inactive)
CC(C)C(=O)Nc1nnc(SCC(=O)NC2CCCC2)s1 | > 43.8 µM (inactive)
O=C(Nc1ccc(OCc2ccccc2)cc1)c1ccccc1 | > 43.8 µM (inactive)
Cc1cc2[nH]c3c4ccccc4nc(C)c3c2cc1C | inactive
COc1ccc(C(=O)NCCN(C)C)c2nc3ccccc3cc12 | inactive
CN(C)CCNC(=O)c1cccc2[nH]c(-c3ccncc3)nc12 | inactive

Compound | IC50
COc1ccc2c(=O)c3c(=O)n(-c4ccccc4)c(-c4ccc(C)cc4)nc3oc2c1 | > 43.8 µM (inactive)
CSc1ccc(OC2CCCCC2NS(=O)(=O)c2ccc(Cl)cc2)cc1 (configuration not stated) | > 43.8 µM (inactive)
CC(C)n1nc(C(=O)Nc2nc3ccccc3[nH]2)c2ccccc2c1=O | > 43.8 µM (inactive)
O=C(CSc1ccccn1)Nc1ccc(N2CCOCC2)cc1 | > 43.8 µM (inactive)
c1ccc2c(c1)C1=NCCN1c1ccccc1-2 | inactive
CCOC(=O)c1oc2ccc(CNC(C)(C)C)c(Cl)c2c1C | > 43.8 µM (inactive)
CSc1ccc(OC2CCCCC2NS(=O)(=O)c2ccccc2)cc1 (configuration not stated) | > 43.8 µM (inactive)
Cc1ccc(Cl)cc1N1CCN(S(=O)(=O)c2ccc3c(c2)NC(=O)C(C)C(=O)N3)CC1 (configuration not stated) | > 43.8 µM (inactive)
N=C1C(c2nc3ccccc3s2)=C(O)CN1NC(=O)c1c[nH]c2ccccc12 | > 43.8 µM (inactive)
CCCCn1c(NC(C)CC)nc2c1c(=O)[nH]c(=O)n2C (configuration not stated) | > 43.8 µM (inactive)
COc1cccc2nc3c(C(=O)NCCN(C)C)cccc3cc12 | > 43.8 µM (inactive)
CCOC(=O)c1cnc2c(ccc3ccccc32)c1NCCCN(C)C | inactive
COc1ccccc1C(=O)COC(=O)c1ccc(N(C)C)cc1 | > 43.8 µM (inactive)
CC(=O)N(c1ccccc1)c1nc(/C=C/C(=O)Nc2c(C)cc(C)cc2C)cs1 | > 43.8 µM (inactive)
CCc1cccc(OCC(=O)Nc2ccc(S(=O)(=O)Nc3ccccn3)cc2)c1 | > 43.8 µM (inactive)
Cc1cc(C)n2nc(CC(=O)NCc3ccc(F)cc3)nc2n1 | > 43.8 µM (inactive)
